PubChem BioAssay AID602351 (The Scripps Research Institute Molecular Screening Center, 2012)
Calls of active or inactive are those of the source. The rule behind the calls is not given here.

How the values were obtained:
Experiment in all cases: mouse tissue hydrolase off-target profiling – ABPP MudPIT, LC-MS, ABHD6 analysis, in vivo study for DAGLb inhibitor project, late-stage follow-up (AID 602351)
[1] = tested on: Abhd11; settings: serine hydrolase spectral counts, stronger effect = lower value
[2] = tested on: Abhd12; settings: serine hydrolase spectral counts, stronger effect = lower value
[3] = tested on: Acot1; settings: serine hydrolase spectral counts, stronger effect = lower value
[4] = tested on: Acot2; settings: serine hydrolase spectral counts, stronger effect = lower value
[5] = molecular target: Acyl-protein thioesterase 1 (Mus musculus) (UniProt P97823); settings: serine hydrolase spectral counts
Sequence of Acyl-protein thioesterase 1 (Mus musculus) (P97823 whole entry, looked up): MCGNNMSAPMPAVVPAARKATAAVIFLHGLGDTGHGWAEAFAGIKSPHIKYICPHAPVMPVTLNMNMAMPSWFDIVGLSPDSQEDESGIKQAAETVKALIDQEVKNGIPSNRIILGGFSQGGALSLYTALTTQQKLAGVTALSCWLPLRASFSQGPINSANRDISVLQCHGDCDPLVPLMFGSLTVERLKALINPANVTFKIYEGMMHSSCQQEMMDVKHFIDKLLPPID

[6] = tested on: Aoah; settings: serine hydrolase spectral counts, stronger effect = lower value
[7] = tested on: Apeh; settings: serine hydrolase spectral counts, stronger effect = lower value
[8] = tested on: Ctsa; settings: serine hydrolase spectral counts, stronger effect = lower value
[9] = tested on: Ctsg; settings: serine hydrolase spectral counts, stronger effect = lower value
[10] = molecular target: Diacylglycerol lipase-beta (Mus musculus) (UniProt Q91WC9); settings: serine hydrolase spectral counts, Daglb, stronger effect = lower value
Sequence of Diacylglycerol lipase-beta (Mus musculus) (Q91WC9 whole entry, looked up): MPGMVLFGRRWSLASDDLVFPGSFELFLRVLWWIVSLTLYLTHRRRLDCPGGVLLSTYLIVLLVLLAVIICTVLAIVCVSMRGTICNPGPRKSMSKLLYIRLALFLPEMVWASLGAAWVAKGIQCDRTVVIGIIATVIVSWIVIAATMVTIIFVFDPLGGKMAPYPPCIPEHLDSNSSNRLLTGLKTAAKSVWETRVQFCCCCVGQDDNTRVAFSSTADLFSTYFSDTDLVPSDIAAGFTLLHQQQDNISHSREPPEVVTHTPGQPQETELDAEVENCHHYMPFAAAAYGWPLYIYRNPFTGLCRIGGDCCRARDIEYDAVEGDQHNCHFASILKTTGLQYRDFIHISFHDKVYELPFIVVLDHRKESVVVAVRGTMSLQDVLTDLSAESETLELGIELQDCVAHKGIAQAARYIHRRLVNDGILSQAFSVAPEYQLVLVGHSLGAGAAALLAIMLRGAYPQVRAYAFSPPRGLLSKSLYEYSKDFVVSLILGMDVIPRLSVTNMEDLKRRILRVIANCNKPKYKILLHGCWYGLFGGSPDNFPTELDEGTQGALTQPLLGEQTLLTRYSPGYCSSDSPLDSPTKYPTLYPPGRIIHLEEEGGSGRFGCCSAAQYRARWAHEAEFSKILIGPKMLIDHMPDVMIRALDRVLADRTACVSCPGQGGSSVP

[11] = tested on: Dpp4; settings: serine hydrolase spectral counts, stronger effect = lower value
[12] = tested on: Dpp7; settings: serine hydrolase spectral counts, stronger effect = lower value
[13] = tested on: Dpp8; settings: serine hydrolase spectral counts, stronger effect = lower value
[14] = tested on: Dpp9; settings: serine hydrolase spectral counts, stronger effect = lower value
[15] = tested on: Elane; settings: serine hydrolase spectral counts, stronger effect = lower value
[16] = tested on: Fam108b; settings: serine hydrolase spectral counts, stronger effect = lower value
[17] = tested on: Fasn; settings: serine hydrolase spectral counts, stronger effect = lower value
[18] = tested on: Gzma; settings: serine hydrolase spectral counts, stronger effect = lower value
[19] = tested on: Iah1; settings: serine hydrolase spectral counts, stronger effect = lower value
[20] = tested on: KIAA1363; settings: serine hydrolase spectral counts, stronger effect = lower value
[21] = tested on: Lipa; settings: serine hydrolase spectral counts, stronger effect = lower value
[22] = tested on: Lipe; settings: serine hydrolase spectral counts, stronger effect = lower value
[23] = tested on: Lpl; settings: serine hydrolase spectral counts, stronger effect = lower value
[24] = tested on: Lypla2; settings: serine hydrolase spectral counts, stronger effect = lower value
[25] = tested on: Magl; settings: serine hydrolase spectral counts, stronger effect = lower value
[26] = molecular target: Monoacylglycerol lipase ABHD6 (Mus musculus) (UniProt Q8R2Y0); settings: serine hydrolase spectral counts, stronger effect = lower value
Sequence of Monoacylglycerol lipase ABHD6 (Mus musculus) (Q8R2Y0 whole entry, looked up): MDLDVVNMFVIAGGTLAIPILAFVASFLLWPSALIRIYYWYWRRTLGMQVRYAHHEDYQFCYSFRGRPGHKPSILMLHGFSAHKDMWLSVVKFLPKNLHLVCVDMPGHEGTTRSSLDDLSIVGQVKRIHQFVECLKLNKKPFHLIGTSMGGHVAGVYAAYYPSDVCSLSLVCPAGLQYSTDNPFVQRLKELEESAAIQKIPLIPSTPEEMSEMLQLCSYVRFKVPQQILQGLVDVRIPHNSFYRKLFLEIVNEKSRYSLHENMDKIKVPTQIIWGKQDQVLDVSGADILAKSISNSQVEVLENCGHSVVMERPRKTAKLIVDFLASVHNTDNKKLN

[27] = tested on: Pafah1b2; settings: serine hydrolase spectral counts, stronger effect = lower value
[28] = tested on: Pafah1b3; settings: serine hydrolase spectral counts, stronger effect = lower value
[29] = molecular target: Palmitoyl-protein thioesterase ABHD10, mitochondrial (Mus musculus) (UniProt Q6PE15); settings: serine hydrolase spectral counts, stronger effect = lower value
Sequence of Palmitoyl-protein thioesterase ABHD10, mitochondrial (Mus musculus) (Q6PE15 whole entry, looked up): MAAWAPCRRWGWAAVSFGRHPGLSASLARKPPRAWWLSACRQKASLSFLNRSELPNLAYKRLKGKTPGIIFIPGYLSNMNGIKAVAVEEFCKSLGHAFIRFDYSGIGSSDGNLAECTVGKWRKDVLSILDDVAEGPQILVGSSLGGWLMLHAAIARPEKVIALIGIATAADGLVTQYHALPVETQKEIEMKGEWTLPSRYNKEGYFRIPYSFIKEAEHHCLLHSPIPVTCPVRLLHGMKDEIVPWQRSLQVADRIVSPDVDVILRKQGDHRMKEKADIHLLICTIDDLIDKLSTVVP

[30] = tested on: Pla2g15; settings: serine hydrolase spectral counts, stronger effect = lower value
[31] = molecular target: Platelet-activating factor acetylhydrolase (Mus musculus) (UniProt Q60963); settings: serine hydrolase spectral counts
Sequence of Platelet-activating factor acetylhydrolase (Mus musculus) (Q60963 whole entry, looked up): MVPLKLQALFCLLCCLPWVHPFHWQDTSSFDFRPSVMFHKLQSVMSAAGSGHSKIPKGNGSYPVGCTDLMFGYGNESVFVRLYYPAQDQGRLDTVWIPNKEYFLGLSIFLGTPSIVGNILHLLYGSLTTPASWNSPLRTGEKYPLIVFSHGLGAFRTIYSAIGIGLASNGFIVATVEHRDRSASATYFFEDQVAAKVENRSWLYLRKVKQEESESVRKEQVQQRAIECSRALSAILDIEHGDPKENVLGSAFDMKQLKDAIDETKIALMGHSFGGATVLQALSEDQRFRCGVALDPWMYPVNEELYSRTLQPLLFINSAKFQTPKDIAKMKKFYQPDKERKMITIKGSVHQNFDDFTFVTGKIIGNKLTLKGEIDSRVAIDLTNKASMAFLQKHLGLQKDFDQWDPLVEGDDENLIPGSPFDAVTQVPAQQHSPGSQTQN

[32] = molecular target: Platelet-activating factor acetylhydrolase 2, cytoplasmic (Mus musculus) (UniProt Q8VDG7); settings: serine hydrolase spectral counts
Sequence of Platelet-activating factor acetylhydrolase 2, cytoplasmic (Mus musculus) (Q8VDG7 whole entry, looked up): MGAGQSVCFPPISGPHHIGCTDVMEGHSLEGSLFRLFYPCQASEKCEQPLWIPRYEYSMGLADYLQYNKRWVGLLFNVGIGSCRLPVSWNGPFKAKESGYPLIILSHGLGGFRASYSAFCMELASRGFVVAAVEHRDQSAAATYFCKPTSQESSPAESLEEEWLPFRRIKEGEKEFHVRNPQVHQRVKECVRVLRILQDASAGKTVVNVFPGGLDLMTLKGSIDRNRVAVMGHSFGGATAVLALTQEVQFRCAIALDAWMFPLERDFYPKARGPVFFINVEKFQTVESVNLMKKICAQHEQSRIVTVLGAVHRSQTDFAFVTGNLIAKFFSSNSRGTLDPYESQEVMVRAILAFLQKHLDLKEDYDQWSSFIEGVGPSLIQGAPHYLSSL

[33] = tested on: Pnpla6; settings: serine hydrolase spectral counts, stronger effect = lower value
[34] = tested on: Pnpla7; settings: serine hydrolase spectral counts, stronger effect = lower value
[35] = tested on: Ppt2; settings: serine hydrolase spectral counts, stronger effect = lower value
[36] = tested on: Prcp; settings: serine hydrolase spectral counts, stronger effect = lower value
[37] = tested on: Prepl; settings: serine hydrolase spectral counts, stronger effect = lower value
[38] = tested on: Tpp2; settings: serine hydrolase spectral counts, stronger effect = lower value
[39] = significance of hydrolase inhibition

In the case of `COc1ccc(-c2ccc(-c3cn(C(=O)N4CCCCC4c4ccccc4)nn3)cc2)cc1` (stereo unspecified), the spectral counts, test compound [1] is reported as 6.67 (inactive), the p value vs vehicle [1, 39] is reported as 0.422 and the spectral counts, test compound [2] is reported as 24.3 (inactive). The p value vs vehicle [2, 39] was 0.363, the spectral counts, test compound [3] was 25.7 (inactive) and the p value vs vehicle [3, 39] was 0.22. For the same compound, the spectral counts, test compound [4] was 41.7 (inactive), the p value vs vehicle [4, 39] was 0.041 and the spectral counts, test compound ([5]; Lypla1, stronger effect = lower value) was 51.7 (inactive). For the same compound, the p value vs vehicle ([5]; Lypla1, significance of hydrolase inhibition, stronger effect = lower value) was 0.676, the spectral counts, test compound [6] was 14.7 (inactive) and the p value vs vehicle [6, 39] was 0.53. For the same compound, the spectral counts, test compound [7] was 148 (inactive), the p value vs vehicle [7, 39] was 0.187 and the spectral counts, test compound [8] was 86.7 (inactive). The p value vs vehicle [8, 39] was 0.035, the spectral counts, test compound [9] was 36.3 (inactive) and the p value vs vehicle [9, 39] was 0.101. For the same compound, the spectral counts, test compound [10] was 13.7 (inactive), the p value vs vehicle [10, 39] was 0.28 and the spectral counts, test compound [11] was 42 (inactive). The p value vs vehicle [11, 39] was 0.1, the spectral counts, test compound [12] was 16.3 (inactive) and the p value vs vehicle [12, 39] was 0.826. For the same compound, the spectral counts, test compound [13] was 31 (inactive), the p value vs vehicle [13, 39] was 0.639 and the spectral counts, test compound [14] was 62 (inactive). For the same compound, the p value vs vehicle [14, 39] was 0.978, the spectral counts, test compound [15] was 28.3 (inactive) and the p value vs vehicle [15, 39] was 0.242. The spectral counts, test compound [16] was 13.7 (inactive), the p value vs vehicle [16, 39] was 0.018 and the spectral counts, test compound [17] was 75.7 (inactive). The p value vs vehicle [17, 39] was 0.026, the spectral counts, test compound [18] was 5.33 (inactive) and the p value vs vehicle [18, 39] was 0.275. The spectral counts, test compound [19] was 5.67 (inactive), the p value vs vehicle [19, 39] was 0.442 and the spectral counts, test compound [20] was 167 (inactive). The p value vs vehicle [20, 39] was 0.699, the spectral counts, test compound [21] was 3 (inactive) and the p value vs vehicle [21, 39] was 0.482. The spectral counts, test compound [22] was 39.7 (inactive), the p value vs vehicle [22, 39] was 0.014 and the spectral counts, test compound [23] was 58.3 (inactive). The p value vs vehicle [23, 39] was 0.211, the spectral counts, test compound [24] was 89.3 (inactive) and the p value vs vehicle [24, 39] was 0.688. For the same compound, the spectral counts, test compound [25] was 18 (inactive), the p value vs vehicle [25, 39] was 0.937 and the spectral counts, test compound [26] was 0.667. The p value vs vehicle [26, 39] was 0.006, the spectral counts, test compound [27] was 28.3 (inactive) and the p value vs vehicle [27, 39] was 0.6. For the same compound, the spectral counts, test compound [28] was 21.7 (inactive), the p value vs vehicle [28, 39] was 0.409 and the spectral counts, test compound [29] was 13.3 (inactive). For the same compound, the p value vs vehicle [29, 39] was 0.911, the spectral counts, test compound [30] was 29 (inactive) and the p value vs vehicle [30, 39] was 0.012. The spectral counts, test compound ([31]; Pla2g7, stronger effect = lower value) was 17.7 (inactive), the p value vs vehicle ([31]; Pla2g7, significance of hydrolase inhibition, stronger effect = lower value) was 0.115 and the spectral counts, test compound ([32]; Pafah2, stronger effect = lower value) was 16 (inactive). For the same compound, the p value vs vehicle ([32]; Pafah2, significance of hydrolase inhibition, stronger effect = lower value) was 0.202, the spectral counts, test compound [33] was 4 (inactive) and the p value vs vehicle [33, 39] was 0.028. The spectral counts, test compound [34] was 34 (inactive), the p value vs vehicle [34, 39] was 0.656 and the spectral counts, test compound [35] was 5.67 (inactive). For the same compound, the p value vs vehicle [35, 39] was 0.451, the spectral counts, test compound [36] was 99.7 (inactive) and the p value vs vehicle [36, 39] was 0.659. For the same compound, the spectral counts, test compound [37] was 4.33 (inactive), the p value vs vehicle [37, 39] was 0.101 and the spectral counts, test compound [38] was 21 (inactive). The p value vs vehicle [38, 39] was 0.018.
